Data published in ChEMBL document CHEMBL1765070, “Structure-based design of potent and selective 3-phosphoinositide-dependent kinase-1 (PDK1) inhibitors” (J Med Chem, 2011).

These molecules were tested against T1, 3-phosphoinositide-dependent protein kinase 1 (Homo sapiens, UniProt O15530) (assay: Inhibition of PDK1). Conditions: not given.
T1 sequence (O15530 whole entry): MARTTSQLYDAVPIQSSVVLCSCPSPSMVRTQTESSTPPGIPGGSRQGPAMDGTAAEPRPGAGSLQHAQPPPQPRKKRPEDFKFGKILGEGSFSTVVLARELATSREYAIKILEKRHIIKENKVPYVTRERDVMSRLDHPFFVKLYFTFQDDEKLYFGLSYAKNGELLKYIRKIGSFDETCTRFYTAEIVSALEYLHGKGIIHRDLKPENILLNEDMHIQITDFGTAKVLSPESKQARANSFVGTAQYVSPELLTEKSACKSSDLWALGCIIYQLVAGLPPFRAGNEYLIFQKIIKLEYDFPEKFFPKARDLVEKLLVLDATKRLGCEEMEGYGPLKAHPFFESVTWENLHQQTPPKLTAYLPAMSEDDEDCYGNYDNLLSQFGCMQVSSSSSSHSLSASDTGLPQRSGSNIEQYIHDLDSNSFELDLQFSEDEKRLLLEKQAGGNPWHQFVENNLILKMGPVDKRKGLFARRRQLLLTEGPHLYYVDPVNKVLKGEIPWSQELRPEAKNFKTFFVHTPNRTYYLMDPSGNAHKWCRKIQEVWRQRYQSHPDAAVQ

| IC50 [nM] | SMILES |
| --- | --- |
| 50.1 | CC(C)(C)OC(=O)NC1CCCN(c2cc(-c3ccc4c(N)n[nH]c4c3)nc(N)n2)C1 (racemic) |
| 200 | Nc1nc(-c2ccccc2)cc(-c2ccc3c(N)n[nH]c3c2)n1 |
| 79.4 | CNc1cc(-c2ccc3c(N)n[nH]c3c2)nc(N)n1 |
| 7.94 | C[C@@H]1CC[C@H](C(=O)NC2CCCCC2)CN1c1cc(-c2ccc3c(N)n[nH]c3c2)nc(N)n1 |
| 1000 | Nc1nc(-c2ccc3c(N)n[nH]c3c2)cc(N2CCO[C@@H](C(=O)Nc3ccccc3)C2)n1 |
| 126 | Nc1nc(-c2ccc3c(N)n[nH]c3c2)cc(N2CCC[C@@H](C(=O)Nc3ccccc3)C2)n1 |
| 126 | CC(C)Nc1cc(-c2ccc3c(N)n[nH]c3c2)nc(N)n1 |
| 501 | CN(C)c1cc(-c2ccc3c(N)n[nH]c3c2)nc(N)n1 |
| 0.631 | C[C@@H]1C[C@@H](N(C)C(=O)CC(C)(C)C)CN(c2cc(-c3ccc4c(N)n[nH]c4c3)nc(N)n2)C1 |
| 126 | Nc1nc(-c2ccc3c(N)n[nH]c3c2)cc(N2CCC[C@H](C(=O)NC3CCCC3)C2)n1 |

The molecules below were run against Aurora kinase B (Homo sapiens, UniProt Q96GD4) (assay: Inhibition of aurora B). Conditions: not given.
Chain of Aurora kinase B (Q96GD4 whole entry): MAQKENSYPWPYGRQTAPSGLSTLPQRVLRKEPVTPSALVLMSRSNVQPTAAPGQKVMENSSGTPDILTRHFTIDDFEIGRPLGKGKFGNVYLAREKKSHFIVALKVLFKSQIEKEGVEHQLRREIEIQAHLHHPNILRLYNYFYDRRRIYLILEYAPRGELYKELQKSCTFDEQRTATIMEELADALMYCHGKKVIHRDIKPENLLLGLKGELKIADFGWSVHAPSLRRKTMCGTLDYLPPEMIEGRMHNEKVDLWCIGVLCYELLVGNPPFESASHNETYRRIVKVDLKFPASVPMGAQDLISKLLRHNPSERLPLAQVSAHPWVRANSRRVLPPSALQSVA

| IC50 [nM] | SMILES |
| --- | --- |
| 398 | CC(C)(C)OC(=O)NC1CCCN(c2cc(-c3ccc4c(N)n[nH]c4c3)nc(N)n2)C1 (racemic) |
| 2000 | Nc1nc(-c2ccccc2)cc(-c2ccc3c(N)n[nH]c3c2)n1 |
| 12600 | CNc1cc(-c2ccc3c(N)n[nH]c3c2)nc(N)n1 |
| 1000 | C[C@@H]1CC[C@H](C(=O)NC2CCCCC2)CN1c1cc(-c2ccc3c(N)n[nH]c3c2)nc(N)n1 |
| > 10000 | Nc1nc(-c2ccc3c(N)n[nH]c3c2)cc(N2CCO[C@@H](C(=O)Nc3ccccc3)C2)n1 |
| 1580 | Nc1nc(-c2ccc3c(N)n[nH]c3c2)cc(N2CCC[C@@H](C(=O)Nc3ccccc3)C2)n1 |
| 15800 | CC(C)Nc1cc(-c2ccc3c(N)n[nH]c3c2)nc(N)n1 |
| > 10000 | CN(C)c1cc(-c2ccc3c(N)n[nH]c3c2)nc(N)n1 |
| 200 | C[C@@H]1C[C@@H](N(C)C(=O)CC(C)(C)C)CN(c2cc(-c3ccc4c(N)n[nH]c4c3)nc(N)n2)C1 |
| > 10000 | Nc1nc(-c2ccc3c(N)n[nH]c3c2)cc(N2CCC[C@H](C(=O)NC3CCCC3)C2)n1 |

The molecules below were run against Rho-associated protein kinase 1 (Homo sapiens, UniProt Q13464) (assay: Inhibition of ROCK1). Conditions: not given.
Chain of Rho-associated protein kinase 1 (Q13464 whole entry): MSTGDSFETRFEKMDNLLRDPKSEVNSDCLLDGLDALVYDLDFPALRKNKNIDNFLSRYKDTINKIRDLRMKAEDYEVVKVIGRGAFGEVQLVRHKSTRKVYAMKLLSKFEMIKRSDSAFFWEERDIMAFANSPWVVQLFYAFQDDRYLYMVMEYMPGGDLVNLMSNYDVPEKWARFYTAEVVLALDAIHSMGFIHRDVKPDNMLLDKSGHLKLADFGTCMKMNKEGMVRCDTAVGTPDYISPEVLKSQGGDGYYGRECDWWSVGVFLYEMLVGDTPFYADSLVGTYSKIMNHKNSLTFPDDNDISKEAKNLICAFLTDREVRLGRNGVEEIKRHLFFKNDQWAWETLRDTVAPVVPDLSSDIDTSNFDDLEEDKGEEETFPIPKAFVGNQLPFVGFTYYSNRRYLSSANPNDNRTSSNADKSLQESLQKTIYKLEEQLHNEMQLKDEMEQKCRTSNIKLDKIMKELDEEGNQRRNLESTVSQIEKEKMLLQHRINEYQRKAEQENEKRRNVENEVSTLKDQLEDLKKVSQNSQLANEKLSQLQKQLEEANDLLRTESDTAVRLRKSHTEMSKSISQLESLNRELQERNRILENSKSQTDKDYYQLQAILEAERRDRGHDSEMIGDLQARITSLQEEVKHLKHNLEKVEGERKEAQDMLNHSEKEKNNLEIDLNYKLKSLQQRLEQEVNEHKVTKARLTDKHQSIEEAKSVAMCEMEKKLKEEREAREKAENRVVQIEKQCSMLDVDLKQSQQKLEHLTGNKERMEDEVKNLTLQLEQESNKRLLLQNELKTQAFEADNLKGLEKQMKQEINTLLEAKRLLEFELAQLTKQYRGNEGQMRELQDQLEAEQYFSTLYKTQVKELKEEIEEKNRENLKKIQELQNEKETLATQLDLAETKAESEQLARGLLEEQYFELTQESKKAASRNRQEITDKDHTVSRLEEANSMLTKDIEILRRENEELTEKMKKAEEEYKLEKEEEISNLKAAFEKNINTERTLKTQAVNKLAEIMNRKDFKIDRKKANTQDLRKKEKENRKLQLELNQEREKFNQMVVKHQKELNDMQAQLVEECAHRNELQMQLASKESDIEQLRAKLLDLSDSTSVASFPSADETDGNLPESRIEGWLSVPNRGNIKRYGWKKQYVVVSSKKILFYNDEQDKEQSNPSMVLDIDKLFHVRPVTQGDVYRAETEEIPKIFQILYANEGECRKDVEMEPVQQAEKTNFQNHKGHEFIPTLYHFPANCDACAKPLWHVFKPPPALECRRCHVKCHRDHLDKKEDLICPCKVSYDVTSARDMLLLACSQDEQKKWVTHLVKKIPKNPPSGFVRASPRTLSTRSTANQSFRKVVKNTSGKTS

| IC50 [nM] | SMILES |
| --- | --- |
| > 10000 | CC(C)(C)OC(=O)NC1CCCN(c2cc(-c3ccc4c(N)n[nH]c4c3)nc(N)n2)C1 (racemic) |
| > 10000 | Nc1nc(-c2ccccc2)cc(-c2ccc3c(N)n[nH]c3c2)n1 |
| 7940 | CNc1cc(-c2ccc3c(N)n[nH]c3c2)nc(N)n1 |
| 631 | C[C@@H]1CC[C@H](C(=O)NC2CCCCC2)CN1c1cc(-c2ccc3c(N)n[nH]c3c2)nc(N)n1 |
| > 10000 | Nc1nc(-c2ccc3c(N)n[nH]c3c2)cc(N2CCO[C@@H](C(=O)Nc3ccccc3)C2)n1 |
| 3160 | Nc1nc(-c2ccc3c(N)n[nH]c3c2)cc(N2CCC[C@@H](C(=O)Nc3ccccc3)C2)n1 |
| > 10000 | CC(C)Nc1cc(-c2ccc3c(N)n[nH]c3c2)nc(N)n1 |
| > 10000 | CN(C)c1cc(-c2ccc3c(N)n[nH]c3c2)nc(N)n1 |
| > 10000 | C[C@@H]1C[C@@H](N(C)C(=O)CC(C)(C)C)CN(c2cc(-c3ccc4c(N)n[nH]c4c3)nc(N)n2)C1 |
| > 10000 | Nc1nc(-c2ccc3c(N)n[nH]c3c2)cc(N2CCC[C@H](C(=O)NC3CCCC3)C2)n1 |

The molecules below were run against T1, 3-phosphoinositide-dependent protein kinase 1 (assay: Inhibition of PDK1-mediated RSK phosphorylation at Ser221 residue in human PC3 cells by ELISA). Conditions: not given.
Assay type: cell-based, PC-3

| IC50 [nM] | SMILES |
| --- | --- |
| 316 | C[C@@H]1CC[C@H](C(=O)NC2CCCCC2)CN1c1cc(-c2ccc3c(N)n[nH]c3c2)nc(N)n1 |
| 116 | C[C@@H]1C[C@@H](N(C)C(=O)CC(C)(C)C)CN(c2cc(-c3ccc4c(N)n[nH]c4c3)nc(N)n2)C1 |

The molecules below were run against T2, TGF-beta receptor type-1 (Homo sapiens, UniProt P36897) (assay: Inhibition of ALK5). Conditions: read-out: pIC50 (converted).
T2 sequence (P36897 whole entry): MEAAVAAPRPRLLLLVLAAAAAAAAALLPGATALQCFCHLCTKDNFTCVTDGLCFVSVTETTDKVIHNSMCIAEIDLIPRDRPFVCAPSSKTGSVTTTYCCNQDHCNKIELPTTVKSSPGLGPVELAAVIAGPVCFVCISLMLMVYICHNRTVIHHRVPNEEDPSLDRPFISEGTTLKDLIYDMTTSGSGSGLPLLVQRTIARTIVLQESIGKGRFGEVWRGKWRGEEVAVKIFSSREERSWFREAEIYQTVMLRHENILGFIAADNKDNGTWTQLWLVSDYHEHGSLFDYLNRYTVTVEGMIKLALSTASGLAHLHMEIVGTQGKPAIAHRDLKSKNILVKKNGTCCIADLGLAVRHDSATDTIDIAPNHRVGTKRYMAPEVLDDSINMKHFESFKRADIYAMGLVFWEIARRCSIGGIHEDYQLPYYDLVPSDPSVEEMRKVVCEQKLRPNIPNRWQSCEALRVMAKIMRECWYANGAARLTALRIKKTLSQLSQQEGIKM

| IC50 [nM] | SMILES |
| --- | --- |
| > 10000 | CC(C)(C)OC(=O)NC1CCCN(c2cc(-c3ccc4c(N)n[nH]c4c3)nc(N)n2)C1 (racemic) |
| 3160 | Nc1nc(-c2ccccc2)cc(-c2ccc3c(N)n[nH]c3c2)n1 |
| 398 | CNc1cc(-c2ccc3c(N)n[nH]c3c2)nc(N)n1 |
| > 10000 | C[C@@H]1CC[C@H](C(=O)NC2CCCCC2)CN1c1cc(-c2ccc3c(N)n[nH]c3c2)nc(N)n1 |
| > 10000 | Nc1nc(-c2ccc3c(N)n[nH]c3c2)cc(N2CCO[C@@H](C(=O)Nc3ccccc3)C2)n1 |
| > 10000 | Nc1nc(-c2ccc3c(N)n[nH]c3c2)cc(N2CCC[C@@H](C(=O)Nc3ccccc3)C2)n1 |
| 501 | CC(C)Nc1cc(-c2ccc3c(N)n[nH]c3c2)nc(N)n1 |
| 5010 | CN(C)c1cc(-c2ccc3c(N)n[nH]c3c2)nc(N)n1 |
| > 10000 | C[C@@H]1C[C@@H](N(C)C(=O)CC(C)(C)C)CN(c2cc(-c3ccc4c(N)n[nH]c4c3)nc(N)n2)C1 |
| > 10000 | Nc1nc(-c2ccc3c(N)n[nH]c3c2)cc(N2CCC[C@H](C(=O)NC3CCCC3)C2)n1 |

The molecules below were run against T3, Aurora kinase A (Homo sapiens, UniProt O14965) (assay: Inhibition of aurora A). Conditions: not given.
T3 sequence (O14965 whole entry): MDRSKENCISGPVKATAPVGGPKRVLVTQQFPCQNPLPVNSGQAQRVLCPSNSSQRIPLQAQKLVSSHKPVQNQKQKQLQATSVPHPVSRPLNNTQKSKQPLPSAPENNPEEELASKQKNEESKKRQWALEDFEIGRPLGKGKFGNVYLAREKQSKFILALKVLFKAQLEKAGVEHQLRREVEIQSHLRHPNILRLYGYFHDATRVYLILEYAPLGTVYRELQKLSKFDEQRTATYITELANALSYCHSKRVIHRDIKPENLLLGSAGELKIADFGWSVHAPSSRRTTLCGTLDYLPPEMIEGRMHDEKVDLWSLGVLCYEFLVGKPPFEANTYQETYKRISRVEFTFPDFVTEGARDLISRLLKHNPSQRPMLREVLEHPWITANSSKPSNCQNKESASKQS

| IC50 [nM] | SMILES |
| --- | --- |
| 1260 | CC(C)(C)OC(=O)NC1CCCN(c2cc(-c3ccc4c(N)n[nH]c4c3)nc(N)n2)C1 (racemic) |
| 1580 | Nc1nc(-c2ccccc2)cc(-c2ccc3c(N)n[nH]c3c2)n1 |
| 3160 | CNc1cc(-c2ccc3c(N)n[nH]c3c2)nc(N)n1 |
| 5010 | C[C@@H]1CC[C@H](C(=O)NC2CCCCC2)CN1c1cc(-c2ccc3c(N)n[nH]c3c2)nc(N)n1 |
| > 10000 | Nc1nc(-c2ccc3c(N)n[nH]c3c2)cc(N2CCO[C@@H](C(=O)Nc3ccccc3)C2)n1 |
| 7940 | Nc1nc(-c2ccc3c(N)n[nH]c3c2)cc(N2CCC[C@@H](C(=O)Nc3ccccc3)C2)n1 |
| 2000 | CC(C)Nc1cc(-c2ccc3c(N)n[nH]c3c2)nc(N)n1 |
| > 10000 | CN(C)c1cc(-c2ccc3c(N)n[nH]c3c2)nc(N)n1 |
| 63.1 | C[C@@H]1C[C@@H](N(C)C(=O)CC(C)(C)C)CN(c2cc(-c3ccc4c(N)n[nH]c4c3)nc(N)n2)C1 |
| > 10000 | Nc1nc(-c2ccc3c(N)n[nH]c3c2)cc(N2CCC[C@H](C(=O)NC3CCCC3)C2)n1 |

Each molecule was assayed against T1, 3-phosphoinositide-dependent protein kinase 1 (assay: Inhibition of PDK1-mediated AKT phosphorylation at Thr308 residue in human PC3 cells by ELISA). Conditions: not given.
Assay type: cell-based, PC-3

| IC50 [nM] | SMILES |
| --- | --- |
| 472 | C[C@@H]1CC[C@H](C(=O)NC2CCCCC2)CN1c1cc(-c2ccc3c(N)n[nH]c3c2)nc(N)n1 |
| 22 | C[C@@H]1C[C@@H](N(C)C(=O)CC(C)(C)C)CN(c2cc(-c3ccc4c(N)n[nH]c4c3)nc(N)n2)C1 |
